Source: patent publication US20150352108A1, “AMINO-PYRIMIDINE COMPOUNDS AS INHIBITORS OF TBK1 AND/OR IKK EPSILON” (Alzheimer's Institute of America, priority 2009, published 2015)

How the values were obtained:
TBK1 = target: T1, TBK1 (Homo sapiens, UniProt Q9UHD2); test: In-vitro TBK1 kinase assay ([γ33]ATP filter-plate); type: biochemical; conditions: text bins; read-out: IC50 for inhibition of the kinase activity of TBK1
T1 construct: His-tag; made in house; host or cells: Sf9 insect cells
T1 sequence (Q9UHD2 1-729): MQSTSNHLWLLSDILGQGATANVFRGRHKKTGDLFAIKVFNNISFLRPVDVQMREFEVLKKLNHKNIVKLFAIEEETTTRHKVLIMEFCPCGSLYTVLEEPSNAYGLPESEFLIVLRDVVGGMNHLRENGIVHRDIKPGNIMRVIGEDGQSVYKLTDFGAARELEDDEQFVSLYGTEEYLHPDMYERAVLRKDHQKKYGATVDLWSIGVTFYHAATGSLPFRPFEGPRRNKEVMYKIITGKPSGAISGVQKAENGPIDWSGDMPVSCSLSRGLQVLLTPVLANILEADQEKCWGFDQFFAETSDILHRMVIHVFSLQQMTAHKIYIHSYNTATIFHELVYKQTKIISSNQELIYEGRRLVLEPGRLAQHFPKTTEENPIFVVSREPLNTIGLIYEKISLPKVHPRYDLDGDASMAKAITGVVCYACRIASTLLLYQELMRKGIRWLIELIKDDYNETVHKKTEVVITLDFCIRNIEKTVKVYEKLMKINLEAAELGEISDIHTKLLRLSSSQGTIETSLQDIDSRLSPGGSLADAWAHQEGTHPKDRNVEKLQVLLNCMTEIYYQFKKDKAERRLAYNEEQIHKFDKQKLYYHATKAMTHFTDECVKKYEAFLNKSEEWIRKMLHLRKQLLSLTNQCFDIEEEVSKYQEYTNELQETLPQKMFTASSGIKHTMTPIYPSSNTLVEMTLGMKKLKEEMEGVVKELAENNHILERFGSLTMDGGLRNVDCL
Method in brief: (§1)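 Phosphorylation of casein or myelin basic protein was counted by P-81 filter capture after 30-45 min reactions stopped with phosphoric acid, with counts normalized to DMSO after background subtraction. ATP was twice Km: 60 μM for TBK1 and 32 μM for IKKε, plus [γ33]ATP. Sf9-expressed His-tag enzymes were used at normal/sensitized levels of 0.1/0.02 μg/ml (TBK1) and 0.1/0.015 μg/ml (IKKε).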

IKKε = target: T2, IKKε (Homo sapiens, UniProt Q14164); test: In-vitro IKKε kinase assay ([γ33]ATP filter-plate); type: biochemical; conditions: text bins; read-out: IC50 for inhibition of the kinase activity of IKKε
T2 construct: His-tag; made in house; host or cells: Sf9 insect cells
T2 sequence (Q14164 1-716): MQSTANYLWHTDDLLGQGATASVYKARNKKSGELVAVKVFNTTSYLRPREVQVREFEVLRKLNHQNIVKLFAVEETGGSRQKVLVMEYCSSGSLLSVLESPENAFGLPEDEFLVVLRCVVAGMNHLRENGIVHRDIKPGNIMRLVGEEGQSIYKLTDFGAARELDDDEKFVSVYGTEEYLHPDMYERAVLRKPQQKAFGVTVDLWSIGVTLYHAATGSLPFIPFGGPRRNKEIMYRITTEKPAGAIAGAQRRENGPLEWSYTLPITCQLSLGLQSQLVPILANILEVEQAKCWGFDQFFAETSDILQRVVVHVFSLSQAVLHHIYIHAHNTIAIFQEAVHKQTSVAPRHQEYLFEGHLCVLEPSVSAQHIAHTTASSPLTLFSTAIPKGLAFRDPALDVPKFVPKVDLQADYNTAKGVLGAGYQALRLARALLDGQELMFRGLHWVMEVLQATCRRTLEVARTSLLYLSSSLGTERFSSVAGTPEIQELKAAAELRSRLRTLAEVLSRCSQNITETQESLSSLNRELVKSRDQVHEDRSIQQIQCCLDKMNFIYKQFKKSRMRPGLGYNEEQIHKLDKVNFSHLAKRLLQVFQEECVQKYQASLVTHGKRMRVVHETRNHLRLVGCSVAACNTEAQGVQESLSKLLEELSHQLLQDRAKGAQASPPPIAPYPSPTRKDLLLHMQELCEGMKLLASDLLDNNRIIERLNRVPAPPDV
Method in brief: as §1

IC50 (TBK1) [nM] | IC50 (IKKε) [nM] | Compound
10 to 100 | 5 to 50 | COc1ccc(-c2ccnc(Nc3ccc(OC4CCN(C)CC4)c(OC)c3)n2)cc1C#N [compound 302, 2-Methoxy-5-[2-({3-methoxy-4-[(1-methylpiperidin-4-yl)oxy]phenyl}amino)pyrimidin-4-yl]benzonitrile]
10 to 100 | 5 to 50 | COc1ccc(-c2ccnc(Nc3ccc(S(=O)(=O)NCCCO)c(OC)c3)n2)cc1C#N [compound 303, 4-{[4-(3-Cyano-4-methoxyphenyl)pyrimidin-2-yl]amino}-N-(3-hydroxypropyl)-2-methoxybenzene-sulfonamide]
10 to 100 | 5 to 50 | COc1cc(Nc2nccc(-c3ccc(OC)c(C#N)c3)n2)cc(C(=O)O)c1 [compound 305]
< 10 | < 5 | COc1cc(Nc2nccc(-c3ccc(OC4CCOCC4)c(C#N)c3)n2)ccc1C(N)=O [compound 311, 4-({4-[3-cyano-4-(tetrahydro-2H-pyran-4-yloxy)phenyl]pyrimidin-2-yl}amino)-2-methoxybenzamide]
10 to 100 | 5 to 50 | COc1ccc(-c2ccnc(Nc3ccc(N4CCS(=O)(=O)CC4)cc3)n2)cc1C#N [compound 313]
10 to 100 | 5 to 50 | COc1ccc(-c2ccnc(Nc3cccc(OCCN4CCOCC4)c3)n2)cc1C#N [compound 314, 2-Methoxy-5-[2-({3-[2-(morpholin-4-yl)ethoxy]phenyl}amino)pyrimidin-4-yl]benzonitrile]
< 10 | 5 to 50 | COc1cc(NC(=O)NCCCO)cc(Nc2nccc(-c3ccc(OC)c(C#N)c3)n2)c1 [compound 315, 1-(3-{[4-(3-Cyano-4-methoxyphenyl)pyrimidin-2-yl]amino}-5-methoxyphenyl)-3-(3-hydroxypropyl)urea]
10 to 100 | 5 to 50 | COc1ccc(Nc2nccc(-c3cccc(C#N)c3)n2)cc1Cl [compound 318, 3-{2-[(3-Chloro-4-methoxyphenyl)amino]pyrimidin-4-yl}benzonitrile]
10 to 100 | 50 to 500 | COc1cc(NC(=O)NCCCN)cc(Nc2nccc(-c3ccc(OC)c(C#N)c3)n2)c1 [compound 320, 1-(3-Aminopropyl)-3-(3-{[4-(3-cyano-4-methoxyphenyl)pyrimidin-2-yl]amino}-5-methoxyphenyl)urea]
10 to 100 | 50 to 500 | N#Cc1cccc(-c2ccnc(Nc3ccc(N4CCOCC4)cc3)n2)c1 [compound 322, 3-(2-{[4-(Morpholin-4-yl)phenyl]amino}pyrimidin-4-yl)benzonitrile]
10 to 100 | 5 to 50 | COC(=O)c1ccc(Nc2nccc(-c3ccc(OC4CCN(C(=O)[C@H](C)O)CC4)c(C#N)c3)n2)cc1OC [compound 324, methyl 4-({4-[3-cyano-4-({1-[(2S)-2-hydroxypropanoyl]piperidin-4-yl}oxy)phenyl]pyrimidin-2-yl}amino)-2-methoxybenzoate]
< 10 | < 5 | COc1cc(Nc2nccc(-c3ccc(O)c(C#N)c3)n2)ccc1N1CCNC(=O)C1 [compound 326, 2-Hydroxy-5-(2-{[3-methoxy-4-(3-oxopiperazin-1-yl)phenyl]amino}pyrimidin-4-yl)benzonitrile]
10 to 100 | 5 to 50 | COc1ccc(Nc2nccc(-c3ccc(OC)c(C#N)c3)n2)cc1Cl [compound 327, 5-{2-[(3-Chloro-4-methoxyphenyl)amino]pyrimidin-4-yl}-2-methoxybenzonitrile]
< 10 | < 5 | N#Cc1cc(-c2ccnc(Nc3ccc(N4CCOCC4)c(C4CC4)c3)n2)ccc1OC1CCOCC1 [compound 329, 5-(2-{[3-cyclopropyl-4-(morpholin-4-yl)phenyl]amino}pyrimidin-4-yl)-2-(tetrahydro-2H-pyran-4-yloxy)benzonitrile]
< 10 | < 5 | C[C@H](O)C(=O)N1CCC(Oc2ccc(-c3ccnc(Nc4ccc(C(=O)N(C)CCN(C)C)cc4)n3)cc2C#N)CC1 [compound 331, 4-({4-[3-cyano-4-({1-[(2S)-2-hydroxypropanoyl]piperidin-4-yl}oxy)phenyl]pyrimidin-2-yl}amino)-N-[2-(dimethylamino)ethyl]-N-methylbenzamide]
10 to 100 | 5 to 50 | COc1cc(NC(=O)NC2CCCC2)cc(Nc2nccc(-c3ccc(OC)c(C#N)c3)n2)c1 [compound 332, 1-(3-{[4-(3-Cyano-4-methoxyphenyl)pyrimidin-2-yl]amino}-5-methoxyphenyl)-3-cyclopentylurea]
< 10 | < 5 | CC(C)Oc1ccc(-c2ccnc(Nc3ccc(N4CCN(C)CC4)cc3)n2)cc1C#N [compound 335, 5-(2-{[4-(4-Methylpiperazin-1-yl)phenyl]amino}pyrimidin-4-yl)-2-(propan-2-yloxy)benzonitrile]
10 to 100 | 5 to 50 | COc1ccc(-c2ccnc(Nc3ccc(CN4CCN(C)CC4)cc3)n2)cc1C#N [compound 337, 2-Methoxy-5-[2-({4-[(4-methylpiperazin-1-yl)methyl]phenyl}amino)pyrimidin-4-yl]benzonitrile]
< 10 | < 5 | COc1ccc(-c2ccnc(Nc3cc(OC)c(OC)c(OC)c3)n2)cc1C#N [compound 341, 2-methoxy-5-{2-[(3,4,5-trimethoxyphenyl)amino]pyrimidin-4-yl}benzonitrile]
< 10 | 5 to 50 | COC(=O)c1ccc(Nc2nccc(-c3ccc(OC4CCN(C(=O)[C@H](C)O)CC4)c(C#N)c3)n2)cc1 [compound 342, methyl 4-({4-[3-cyano-4-({1-[(2S)-2-hydroxypropanoyl]piperidin-4-yl}oxy)phenyl]pyrimidin-2-yl}amino)benzoate]
< 10 | 5 to 50 | COc1cc(NC(=O)NC[C@@H](C)O)cc(Nc2nccc(-c3ccc(OC)c(C#N)c3)n2)c1 [compound 343, 1-(3-{[4-(3-Cyano-4-methoxyphenyl)pyrimidin-2-yl]amino}-5-methoxyphenyl)-3-[(2R)-2-hydroxypropyl]urea]
10 to 100 | 5 to 50 | COc1cc(NC(=O)NC2CCN(C(C)=O)CC2)cc(Nc2nccc(-c3ccc(OC)c(C#N)c3)n2)c1 [compound 344, 1-(1-Acetylpiperidin-4-yl)-3-(3-{[4-(3-cyano-4-methoxyphenyl)pyrimidin-2-yl]amino}-5-methoxyphenyl)urea]
10 to 100 | 5 to 50 | COc1ccc(-c2ccnc(Nc3cccc(S(N)(=O)=O)c3)n2)cc1C#N [compound 346, 3-{[4-(3-Cyano-4-methoxyphenyl)pyrimidin-2-yl]amino} benzenesulfonamide]
100 to 500 | 50 to 500 | COc1cc(Nc2nccc(-c3cccc(C#N)c3)n2)cc(OC)c1 [compound 347, 3-{2-[(3,5-Dimethoxyphenyl)amino]pyrimidin-4-yl}benzonitrile]
10 to 100 | 5 to 50 | COc1cc(NC(=O)N2CCCC(O)C2)cc(Nc2nccc(-c3ccc(OC)c(C#N)c3)n2)c1 (stereo not shown) [compound 353, N-(3-{[4-(3-Cyano-4-methoxyphenyl)pyrimidin-2-yl]amino}-5-methoxyphenyl)-3-hydroxypiperidine-1-carboxamide]
10 to 100 | 5 to 50 | COc1cc(NC(=O)c2cccnc2)cc(Nc2nccc(-c3ccc(OC)c(C#N)c3)n2)c1 [compound 356, N-(3-{[4-(3-Cyano-4-methoxyphenyl)pyrimidin-2-yl]amino}-5-methoxyphenyl) pyridine-3-carboxamide]
